Assay [1] concerns the target cAMP-dependent protein kinase (PKA) (Homo sapiens, UniProt P22694+P17612+P22612). Briefly: Inhibition of cAMP-dependent kinase (Protein kinase A). The class given is protein assay.
Assay [2] deals with Proto-oncogene tyrosine-protein kinase Src (Homo sapiens, UniProt P12931). Put plainly: Inhibition of cellular oncogene pp60 c-src.
The target of assay [3] is Epidermal growth factor receptor (Homo sapiens, UniProt P00533). Briefly: Inhibition of epidermal growth factor receptor (EGFR).
Chain of Epidermal growth factor receptor (P00533 whole entry): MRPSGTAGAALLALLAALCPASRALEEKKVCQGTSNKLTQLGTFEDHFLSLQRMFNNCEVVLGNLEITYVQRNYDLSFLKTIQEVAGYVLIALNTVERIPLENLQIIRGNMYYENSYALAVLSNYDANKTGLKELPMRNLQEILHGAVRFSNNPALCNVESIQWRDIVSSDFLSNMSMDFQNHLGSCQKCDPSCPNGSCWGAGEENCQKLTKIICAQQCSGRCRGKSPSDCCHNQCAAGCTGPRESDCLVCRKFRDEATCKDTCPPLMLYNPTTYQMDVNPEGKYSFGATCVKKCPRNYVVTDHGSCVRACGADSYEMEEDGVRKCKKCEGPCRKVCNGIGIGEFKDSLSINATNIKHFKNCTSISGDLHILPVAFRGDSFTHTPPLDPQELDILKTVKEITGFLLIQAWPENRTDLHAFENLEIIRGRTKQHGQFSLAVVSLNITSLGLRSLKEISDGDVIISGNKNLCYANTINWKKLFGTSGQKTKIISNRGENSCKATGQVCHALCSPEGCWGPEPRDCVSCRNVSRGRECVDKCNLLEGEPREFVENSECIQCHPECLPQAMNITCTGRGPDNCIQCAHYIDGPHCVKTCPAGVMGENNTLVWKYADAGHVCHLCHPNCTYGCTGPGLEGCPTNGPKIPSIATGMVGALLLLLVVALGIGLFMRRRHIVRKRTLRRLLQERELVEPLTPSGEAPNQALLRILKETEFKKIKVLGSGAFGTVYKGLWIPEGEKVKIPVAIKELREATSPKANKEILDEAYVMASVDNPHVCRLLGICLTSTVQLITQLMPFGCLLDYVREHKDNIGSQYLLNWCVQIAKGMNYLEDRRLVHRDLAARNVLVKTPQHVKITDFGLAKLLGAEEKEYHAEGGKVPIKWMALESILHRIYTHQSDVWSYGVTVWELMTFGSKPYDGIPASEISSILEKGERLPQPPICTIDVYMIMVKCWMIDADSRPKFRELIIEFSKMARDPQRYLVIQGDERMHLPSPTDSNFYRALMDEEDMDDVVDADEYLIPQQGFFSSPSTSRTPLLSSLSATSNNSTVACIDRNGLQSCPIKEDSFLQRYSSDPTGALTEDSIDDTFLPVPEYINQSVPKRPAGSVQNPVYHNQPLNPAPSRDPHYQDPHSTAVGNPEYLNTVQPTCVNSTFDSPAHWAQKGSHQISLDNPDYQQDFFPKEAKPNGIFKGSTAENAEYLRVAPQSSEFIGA

For orientation: IC50 means the concentration that inhibits the measured activity by half. A high value points to weaker potency.

Chain of Proto-oncogene tyrosine-protein kinase Src (P12931 2-536 limits assumed): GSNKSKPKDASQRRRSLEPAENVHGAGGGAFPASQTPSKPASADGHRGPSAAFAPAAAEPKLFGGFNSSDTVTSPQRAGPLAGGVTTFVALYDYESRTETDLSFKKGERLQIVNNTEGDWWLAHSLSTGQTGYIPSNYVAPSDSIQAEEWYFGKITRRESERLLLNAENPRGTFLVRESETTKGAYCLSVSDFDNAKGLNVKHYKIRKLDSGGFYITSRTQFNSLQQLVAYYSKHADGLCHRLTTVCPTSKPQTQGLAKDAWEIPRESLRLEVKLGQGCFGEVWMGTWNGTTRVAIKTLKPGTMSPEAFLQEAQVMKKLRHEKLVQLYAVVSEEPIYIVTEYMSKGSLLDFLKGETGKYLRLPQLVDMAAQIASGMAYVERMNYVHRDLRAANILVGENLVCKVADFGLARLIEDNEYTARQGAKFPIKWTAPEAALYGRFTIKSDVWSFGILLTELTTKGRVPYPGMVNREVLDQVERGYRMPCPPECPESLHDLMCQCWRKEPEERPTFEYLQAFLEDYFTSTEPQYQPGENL

As for `COc1ccc2c(c1)Nc1ncnc(O)c1C2`, the IC50 in assay [1] is above 3000 µM; in assay [2], 0.5 µM.

For the molecule `Oc1[nH]cnc2nc3ccccc3c1-2`, half-maximal inhibition in assay [2] (IC50) was put at 293 µM.

In the case of `COc1cc2c(cc1OC)Nc1ncn(CCN3CCOCC3)c(=O)c1C2`, the results for the IC50 in assay [1] and in assay [2] were above 1000 µM and 105 µM, respectively.

As to `COc1cc2c(cc1OC)Nc1ncnc(O)c1C2`, the IC50 in assay [1] was above 3000 µM; in assay [2], 0.5 µM; in assay [3] it was 75 µM.

`Oc1ncnc2c1Cc1ccccc1N2`: the figures for the IC50 in assay [1] and in assay [2] were above 3000 µM and 9.1 µM, respectively.

For the molecule `COc1ccc2c(c1)Cc1c(O)ncnc1N2`, the IC50 in assay [1] was above 3000 µM; in assay [2], 3.7 µM.

Turning to `COc1cc2c(cc1OC)Nc1ncn(C)c(=O)c1C2`, the IC50 in assay [1] is above 3000 µM; in assay [2] it was 1.2 µM; in assay [3], 160 µM.

For `Oc1cc(Nc2ccccc2)ncn1`, the IC50 in assay [1] is above 4000 µM; in assay [2], 1550 µM.

As for `COc1cc2cc3c(O)ncnc3nc2cc1OC`, the IC50 in assay [1] is above 750 µM; in assay [2], 32 µM.

For the molecule `CCc1nc(O)c2c(n1)Nc1ccccc1C2`, the IC50 in assay [1] is above 3000 µM; in assay [2] it was 38 µM.

For the molecule `CCN1c2ccccc2Cc2c(O)ncnc21`, the 50% inhibitory concentration (IC50) was above 960 µM in assay [1] and 550 µM in assay [2].

The values above are taken from ChEMBL document CHEMBL1128884, “Selective inhibition of the tyrosine kinase pp60src by analogs of 5,10-dihydropyrimido[4,5-b]quinolin-4(1H)-one” (Bioorg Med Chem Lett, 1995).
